Measurements: US10105395B2, “Microvesicles (MVs) derived from adult stem cells for use in the therapeutic treatment of a tumor disease” (Fresenius Medical Care Deutschland GmbH, priority 2010, dated 2018)

Tests used:
Type in all cases: cell-based, human
[1] = system: KS cells (Kaposi's sarcoma cells); experiment: TUNEL apoptotic assay, MVs from MSCs; conditions: 24 and 48 hours, compared to vehicle alone; doxorubicin 100 ng/ml
Procedure: (§1) HepG2, MCF-7, SKOV-3, KS cells, HUVECs or TECs were seeded at 8,000 cells/well into 96-well plated in DMEM (Sigma) with 10% FCS and in the presence of doxorubicin (100 ng/ml, Sigma) or different concentrations of MVs (10 and 30 μg/ml) pre-treated or not with RNase. Apoptosis was assessed by TUNEL assay (ApopTag Oncor, Gaithersburg, Md., USA). After 24 or 48 hours of treatment, the cells were washed with PBS, fixed in 1% paraformaldehyde pH 7.4 for 15 minutes at 4° C., washed twice in PBS and then post-fixed in pre-cooled ethanol-acetic acid 2:1 for 5 minutes at −20° C. The samples were treated with the enzyme terminal deoxynucleotidyl transferase (TdT). The cells were then treated with heated anti-digoxigenin conjugate with fluorescein and incubated for 30 minutes at room temperature. The samples were mounted in medium containing 1 μg/ml of propidium iodide and the cells analyzed by immunofluorescence. The results are expressed as the percentage of green fluorescence emitting cells (apoptotic cells) versus red fluorescence emitting cells (total cells).

HepG2 cells = experiment: TUNEL apoptotic assay, MVs from MSCs; conditions: 24 and 48 hours, compared to vehicle alone; doxorubicin 100 ng/ml
Procedure: as §1

HepG2 hepatoma cell line = experiment: TUNEL apoptosis assay, MVs from HLSCs; conditions: MVs 30 μg/ml; vincristine 100 ng/ml; 24 hours
Procedure: Apoptosis was evaluated using the terminal dUTP nickend labeling assay (ApoTag; Oncor, Gaithersburg, Md.). Cells ([…]) were cultured in 96-well plate, suspended in phosphate-buffered saline (PBS) and fixed in 1% paraformaldehyde in PBS, pH 7.4, for 15 minutes at 4° C. followed by pre-cooled ethanol/acetic acid (2:1) for 5 minutes at −20° C. Cells were treated with terminal deoxynucleotide transferase enzyme and incubated in a humidified chamber for 1 hour at 37° C. and then treated with warmed fluorescein isothiocyanate-conjugated antidigoxigenin for 30 minutes at room temperature. After washing, samples were mounted in a medium containing […] of propidium iodide and the cells were analyzed by immunofluorescence.
The ability of HLSC-derived MVs to induce apoptosis on HepG2 was evaluated. Briefly, HepG2 were seeded at a density of 8,000 cells/well into 96-well plates in DMEM with 10% FCS and apoptosis was induced by culture in the absence of FCS, by treatment with vincristine (100 ng/ml), or doxorubicin (50 ng/ml), two mitotic inhibitors used in cancer chemotherapy, or by MV treatment (30 μg/ml). […] Apoptosis was evaluated using the TUNEL assay analysis at […].

Compound	apoptosis of KS cells (Tunel assay) [1]	apoptosis of HepG2 cells (Tunel assay) (HepG2 cells)	HepG2 apoptosis (TUNEL assay) (HepG2 hepatoma cell line)
COc1cccc2c1C(=O)c1c(O)c3c(c(O)c1C2=O)C[C@@](O)(C(=O)CO)C[C@@H]3O[C@H]1C[C@H](N)[C@H](O)[C@H](C)O1 [doxorubicin]	apoptosis induced by doxorubicin	apoptosis induced by doxorubicin	
CC[C@]1(O)C[C@H]2CN(CCc3c([nH]c4ccccc34)[C@@](C(=O)OC)(c3cc4c(cc3OC)N(C=O)[C@H]3[C@@](O)(C(=O)OC)[C@H](OC(C)=O)[C@]5(CC)C=CCN6CC[C@]43[C@@H]65)C2)C1 [vincristine]			induced by vincristine
